Common to all, as to type: in vivo
Assay [1] concerns rats. As to the kind of experiment: Uterotonic endocrine activity in rats. The settings on record: rat. The protocol:
(§1) The endocrine biological activities (in I.U./mg--International Unit--see "Handbook of Experimental Pharmacology", Vol. XXIII: Neurohypophysical hormones and similar polypeptides (B. Berde, Ed), p. 131, Springer-Verlag,Berlin 1968) of the described compounds were determined in rats.

Assay [2] concerns rats. As to the kind of experiment: Pressor endocrine activity in rats. The settings on record: rat. As to the method:
as §1

Another assay has as its system anaesthesized rat. As to the kind of experiment: Antidiuretic activity, anaesthesized rat. As to the method: as §1
The next assay concerns nonanaesthesized rat. As to the kind of experiment: Antidiuretic activity, nonanaesthesized rat. The settings on record: percent of the effect of [8D-argine] deaminovasopressin at the level of threshold efficiency. The protocol:
as §1
b = nonanaesthesized rat Activity is expressed in percent of the effect o
[8D-argine] deaminovasopressin at the level of threshold efficiency

The subject of assay [3] is rats. As to the kind of experiment: Galactogogic endocrine activity in rats. The settings on record: rat. As to the method: as §1

The values that follow come from patent US4482486A, “Analogs of vasopressin” (Ceskoslovenska akademie ved, priority 1982, dated 1984).

In turn, “Lactam of tyrosyl-phenylalanyl-glutaminyl-asparaginyl-S-(γ-carboxypropyl)cysteinyl-prolyl-D-arginine [Ia]” registered a Uterotonic activity with rats [1] of 0.09 I.U./mg. Besides, the Pressor activity entry with rats [2] is listed as “inhibition”. In addition, the Antidiuretic activity a in the assay with anaesthesized rat is on record as 0.8 I.U./mg. The compound also yielded an Antidiuretic activity b in the assay on nonanaesthesized rat of 0.2%.

As for “[8-Ornithine, 9-desglycinamide]vasopressin [Ic]”, the Uterotonic activity in the assay on rats [1] is given as 0.09 I.U./mg. Besides, in the assay on rats [3], the Galactogogic activity turned out to be 0.02 I.U./mg. For the same compound, the Pressor activity in the assay on rats [2] is listed as 0.2 I.U./mg. Besides, in the assay with anaesthesized rat, the Antidiuretic activity a was found to be 0.3 I.U./mg. The Antidiuretic activity b in the assay with nonanaesthesized rat was determined as 0.1%.

Compound “[8-D-Arginine, 9-desglycinamide] vasopressin [Ib]” showed a Uterotonic activity in the assay with rats [1] of 0.07 I.U./mg. The compound further yielded a Galactogogic activity in the assay on rats [3] of 0.12 I.U./mg. Moreover, the Pressor activity in the assay on rats [2] worked out at 0.2 I.U./mg. The compound also had an Antidiuretic activity a in the assay on anaesthesized rat of 4.5 I.U./mg. Besides, in the assay on nonanaesthesized rat, the Antidiuretic activity b worked out at 0.4%.

Take `NC(=O)CC[C@@H]1NC(=O)[C@H](Cc2ccccc2)NC(=O)[C@H](Cc2ccc(O)cc2)NC(=O)[C@@H](N)CSSC[C@@H](C(=O)N2CCC[C@H]2C(=O)N[C@@H](CCCN=C(N)N)C(=O)NCC(N)=O)NC(=O)[C@H](CC(N)=O)NC1=O` [AVP, [8arginine] vasopressin, reference compound]: the Uterotonic activity with rats [1] was found to be 17 I.U./mg. The compound further had a Galactogogic activity in the assay on rats [3] of 69 I.U./mg. In addition, the Pressor activity in the assay with rats [2] is listed as 465 I.U./mg. Also, in the assay with anaesthesized rat, the Antidiuretic activity a is on record as 465 I.U./mg. For the same compound, the Antidiuretic activity b with nonanaesthesized rat is 20%.
